A word on the LD50: it is the dose expected to kill half of the subjects tested. A high value points to a less toxic substance.

Structures can show the parent of a compound that is named as a salt.

Series [1] deals with male dd mice. The series can be described thus: Analgesic activity: acetic acid writhing. The series is classed as in vivo. The following applies: Mus musculus, po, 1 h, acetic acid i.p. after 60 min, read-out: Inhibition ratio (writhes, vs control). The procedure:
In this experiment, 10 male dd mice weighing 20±1 g were used as one group for examination of analgesic activity. Sixty minutes after oral administration of each drug to each animal, 0.2 ml of a 0.7% acetic acid solution was intraperitoneally administered to the animal. Starting 10 minutes after the administration of acetic acid, the number of writhes occurred in 10 minutes was counted. Average number of writhes and inhibition ratio in comparison with control group were calculated.

The subject of the next series is male Wistar rats. As to the kind of experiment: Anti-inflammatory activity: carrageenin edema method. The following applies: Rattus norvegicus, po, 3 hours after carrageenin, read-out: Inhibition ratio (paw swelling, vs control). Format: in vivo. The procedure: In this experiment, 5 male Wistar rats weighing 140±10 g were used as one group. Sixty minutes after oral administration of each drug to each animal, 0.1 ml of a 1% carrageenin solution as a phlogistic agent was injected into the plantar surface of the right hind paw of the animal to induce inflammation. The volume of the paw was measured before and 3 hours after the injection of the phlogistic agent. Swelling ratio and inhibition ratio in comparison with control group were calculated.
(Carrageenan injected into the paw causes an acute inflammation.)

Series [2] has as its system male dd mice. The series can be described thus: Muscle relaxant activity: slant test. Format: in vivo. To be noted: 300 mg/kg p.o., 5 mice per group. The procedure:
(§1) In this example, 5 male dd mice weighing 20±1 g were used as one group. Prior to the experiments, mice were placed on the rod having a diameter of 3 cm and rotating at 5 r.p.m. in the reverse direction of the rotation. […] The drugs were orally administered and the muscle relaxant activity with the passage of time was examined by the following tests.
Slant test: Each mouse was placed on a wire net inclined at an angle of 45° to observe whether it falls or not.
(§2) In each test, the drug was considered to have a muscle relaxant activity when the mouse fell.

The nature of the next series: in vivo. To be noted: mouse, po, mice, deaths counted for 7 days. The procedure:
In this example, 3-7 male dd mice weighing 20±1 g were used as one group. Each drug was suspended in a 0.3% CMC solution and orally administered. After the administration, number of dead animals was counted for 7 days to determine LD50 value. As the reference drugs, mepirizole and benzydamine hydrochloride were dissolved in water and orally administered. The drugs and the reference drugs were also administered in the same manner as above in Examples 2-5.

Series [3] concerns male dd mice. As to the kind of experiment: Muscle relaxant activity: traction test. The series is classed as in vivo. The following applies: 300 mg/kg p.o., 5 mice per group.
Description: as §1
Traction test: Forefeet of the same mouse were placed on a wire to observe whether it falls or not.
as §2

The subject of series [4] is male dd mice. As to the kind of experiment: Anticonvulsant activity: maximal electroshock convulsion test. To be noted: Mus musculus, po, 1 h, 60 min after administration, read-out: Maximal electroshock convulsion test, inhibition ratio. The series is classed as in vivo. From the text: Anticonvulsant activity was examined according to maximal electroshock convulsion test.
In this experiment, 10 male dd mice weighing 23±1 g were used as one group. Each drug was orally administered to the animals. Sixty minutes after the administration, an electric current (2000 V, 50 mA) was applied to both eyes of the mouse for 0.2 second. Drug activity was judged according to whether tonic extensor seizures were observed or not.

The subject of series [5] is male dd mice. As to the kind of experiment: Muscle relaxant activity: rotating rod test. The series is classed as in vivo. To be noted: 300 mg/kg p.o., 5 mice per group. The procedure:
as §1
Rotating rod test: The same mouse was placed on the rotating rod to observe whether it falls or not within 2 minutes.
as §2

In the case of `CN(C)CCCOc1nn(Cc2ccccc2)c2ccccc12` [Benzydamine hydrochloride, benzydamine hydrochloride, reference compound], the inhibition in vivo at 50 mg/kg in the series with male dd mice [1] (50 mg/kg p.o.) stood at 0%. In addition, the inhibition in vivo at 200 mg/kg with male dd mice [1] (200 mg/kg p.o.) came out at 83.7%; with male Wistar rats (200 mg/kg p.o.) it was 23.5%. Moreover, the inhibition in vivo at 100 mg/kg in the series on male Wistar rats (100 mg/kg p.o.) amounted to 14.4%. In addition, the “Number of dropped mice, slant test” value in the series with male dd mice [2] (1 hr) came to 4 mice; in the series with male dd mice [2] (2 hr) it was 2 mice; in the series with male dd mice [2] (3 hr), 0 mice. In “in vivo”, this compound gave an LD50 at 168 h of 500 to 1000 mg/kg. Moreover, the “Number of dropped mice, traction test” value is recorded as 5 mice in the series on male dd mice [3] (1 hr), 1 mice with male dd mice [3] (2 hr) and 0 mice in the series with male dd mice [3] (3 hr). The responders at 50 mg/kg with male dd mice [4] (50 mg/kg p.o.) amounted to 35%. For the same compound, the responders at 75 mg/kg in the series with male dd mice [4] (75 mg/kg p.o.) was found to be 90%. The responders at 100 mg/kg in the series on male dd mice [4] (100 mg/kg p.o.) was found to be 100%. Also, the responders at 300 mg/kg with male dd mice [4] (300 mg/kg p.o.) stood at 100%. The figures for the “Number of dropped mice, rotating rod test” value in the series with male dd mice [5] (1 hr), in the series on male dd mice [5] (2 hr) and with male dd mice [5] (3 hr) were 5 mice, 3 mice and 2 mice, respectively.
